Columns and labels:
[1] = tested on: human ovarian cancer cells (OV90); experiment: BrdU incorporation assay; assay type: cell-based; settings: Taxol alone, 2 nM or 4 nM, FIG. 13A
Method: (§1) Cells were placed at 2,000 cells/well in the middle of a 96 well plate with 100 μl DMEM (life science 41965-039) and 10% fetal calf serum (FBS, Biological industries 14-127-1A) for 24 hours in an incubator at 37° C. with 5% CO2. The medium was then replaced to 200 μl DMEM with 2.5% FBS and Taxol (sigma T7402) at a final concentration of 2 nM or 4 nM in DMSO or dTCApFs (nextar ISK353-01 batch 351-01/1.68) at a final concentration of 25 μg/ml in DMSO. The medium in the control cells was replaced by DMEM and FBS as indicated above. The maximal concentration of DMSO in the cell wells was less than 0.5%. Four wells were used for each concentration.
(§2) Taxol- and dTCApFs-treated cells as well as the control cells were further incubated for 24 hours in the presence of BrdU as follows: 20 μl BrdU reagent (diluted 1:100 in DMEM supplemented with 2.5% FBS) was added to the cells and the plate was incubated 24 hours in 37° degrees incubator with 5% CO2. BrdU ELISA was performed according to the kit protocol (Millipore #2752).
(§3) Cells were placed at 2000 cells/well in the middle of a 96 well plate with 100 μl DMEM and 10% FBS for 24 hours in an incubator at 37° C. with 5% CO2. The medium was then replaced to 200 μl DMEM with 2.5% FBS and dTCApFs at a final concentration of 25 μg/ml (nextar ISK353-01 batch 351-01/1.68) in DMSO. The maximal concentration of DMSO in the cells wells was less than 0.5%. […]

[2] = tested on: human pancreatic cancer cells (BxPC3); experiment: BrdU incorporation assay; assay type: cell-based; settings: Taxol alone, 2 nM or 4 nM, FIG. 13B
Method: as §1, §2, §3

[3] = tested on: human TNBC cells (human MDA231); experiment: Triple negative breast cancer tumors in mice; assay type: in vivo, nude mice; settings: doxorubicin alone, once a week at 3 mg/kg, FIG. 14
Method: Therefore, 32 nude mice were inoculated subcutaneously (S.C.) with 9 million human TNBC cells (human MDA231, ATCC) per mouse. Cells were cultured as known in the art, for example, as described above. When the tumors exceeded a volume of 40 mm^3, the mice were randomly divided into five groups, as follows. The “Control” group (n=5) was treated with 5% mannitol; the “dTCApFs” group (n=5) was treated once a week with dTCApFs at 15 mg/kg; the “Dox” group (n=5) was treated once a week with doxorubicin (Sigma Aldrich) at 3 mg/kg; the “dTCApFs+Dox next day” (n=8) group was treated with dTCApFs at 15 mg/kg and 24 hours later also with doxorubicin, at 3 mg/kg; and the “dTCApFs+Dox same day” (n=9) group was treated with dTCApFs at 15 mg/kg and with doxorubicin at 3 mg/kg, on same day.

B16 cells = experiment: Melanoma tumors in mice, dTCApFs and doxorubicin; assay type: in vivo, C57bl/6 mice; settings: doxorubicin alone, once a week at 3 mg/kg, FIG. 17
Method: In order to examine the effect of a combination of dTCApFs and doxorubicin on melanoma tumor volume, the following experiments were performed in mice. C57bl/6 mice (28) were inoculated SC with 0.2 million B16 cells (ATCC) per mouse. B16 melanoma is a murine tumor cell line used for research as a model for human skin cancers. When tumors exceeded a volume of 50 mm^3, the mice were randomly divided into 4 groups, as follows. “Control” group (n=6) was treated with 5% mannitol; “dTCApFs” treated group (n=6) was treated once a week with dTCApFs (at 15 mg/kg); “Dox” treated group (n=6) was treated once a week with doxorubicin (at 3 mg/kg); and dTCApFs+Dox same day” group (n=10) was treated once a week with dTCApFs and doxorubicin (at 15 mg/kg and 3 mg/kg, respectively), when both agents were administered on the same day.

CC(=O)O[C@H]1C(=O)[C@@]2(C)[C@H]([C@H](OC(=O)c3ccccc3)[C@]3(O)C[C@H](OC(=O)[C@H](O)[C@@H](NC(=O)c4ccccc4)c4ccccc4)C(C)=C1C3(C)C)[C@]1(OC(C)=O)CO[C@@H]1C[C@@H]2O [Taxol, Paclitaxel]
cell viability (BrdU incorporation) [1]: no effect on cell viability was observed | cell viability (BrdU incorporation) [2]: no effect on cell viability was observed

COc1cccc2c1C(=O)c1c(O)c3c(c(O)c1C2=O)C[C@@](O)(C(=O)CO)C[C@@H]3O[C@H]1C[C@H](N)[C@H](O)[C@H](C)O1 [doxorubicin]
tumor volume [3]: clear increase in tumor volume | tumor volume (B16 cells): tumor volume clearly increased
